Measurements: patent US20240335443A1, “IMIDAZOLOPYRIDAZINE OR PYRAZOLOPYRIMIDINE COMPOUNDS AND COMPOSITIONS” (Anrui Biomedical Technology (Guangzhou) Co., Ltd., priority 2021, published 2024)
Where two headings read alike, the source gives them in different places.

Assays:
[1] = tested on: IL-23 induced STAT3 in HEK-Blue™ IL-23 cells; assay: IL-23 induced STAT3 QUANTI-Blue reporter assay in HEK-Blue IL-23 cells; assay type: cell-based; conditions: IL-23 0.1 ng/mL, SEAP levels, read-out: IL23 reporter assay (IC50 nM)
Procedure: Biological Example 2. IL-23 Induced STAT3 QUANTI-Blue in HEK-Blue™ IL-23 Cells
HEK-Blue™ IL-23 cells were prepared at 2×10^5 cells/ml for adding 5000 cell/well and incubate plates containing compounds+cells for 1 hour at 37° C. Prepare IL-23 (treatment at final conc. 0.1 ng/mL) during incubation and add 2 ul per well of prepared cytokine in media to appropriate wells. The plate is incubated for overnight at 37° C. The next day, QUANTI-Blue solution is prepared. 18 ul of QUANTI-Blue solution per well is added into a new 384-well clear flat bottom plate, then add 2 ul of induced and treated HEK-Blue cell supernatant from overnight plate. Incubate the plate at 37° C. for 2 hours and determine SEAP levels.

[2] = target: T1, N-terminal His-tagged TYK2 pseudokinase domain (Homo sapiens, UniProt P29597); assay: TYK2 JH2 domain SPA binding assay; conditions: displacement of H3 probe (20 nM), 30 min room temperature; class symbols
T1 construct: the N-terminal His-tagged TYK2 pseudokinase domain; His (N); purchased Pharmaron
T1 sequence (P29597 589-875 limits assumed): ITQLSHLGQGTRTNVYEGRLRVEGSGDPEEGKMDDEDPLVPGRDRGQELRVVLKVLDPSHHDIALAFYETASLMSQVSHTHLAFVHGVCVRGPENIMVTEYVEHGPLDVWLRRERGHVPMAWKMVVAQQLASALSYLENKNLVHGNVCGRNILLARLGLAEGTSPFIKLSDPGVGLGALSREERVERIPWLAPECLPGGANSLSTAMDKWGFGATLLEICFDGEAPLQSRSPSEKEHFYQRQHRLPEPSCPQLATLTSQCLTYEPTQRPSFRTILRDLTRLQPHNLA
Procedure: TYK2 JH2 Domain Binding Assay
After incubating at room temperature for 30 min, the inhibition was calculated by the displacement of [3H] 3 binding as determined by scintillation counting. Dose-response curves were generated to determine the concentration required to inhibit H3 probe binding by […] (IC50).

[3] = HEK-Blue IL-23 cells, class symbols
[4] = HEK-Blue IL-23, HEK-Blue IL-23 cells, class symbols

| SMILES | IC50 [2] | IC50 [1, 4] | other results |
| --- | --- | --- | --- |
| CNc1cc(Nc2cccn(-c3ccccn3)c2=O)nn2c(C(=O)NC3CCC4CCOC43)cnc12 (racemic) [Compound 10a, N-(hexahydro-2H-cyclopenta[b]furan-6-yl)-8-(methylamino)-6-((2-oxo-2H-[1,2′-bipyridin]-3-yl)amino)imidazo[1,2-b]pyridazine-3-carboxamide] | 10 to 100 nM |  | IC50 [1, 3]: 10 to 100 nM |
| CNc1cc(Nc2cccn(-c3ccccn3)c2=O)nn2c(C(=O)NC3CCC4CCOC43)cnc12 (racemic) [Compound 10b, N-(hexahydro-2H-cyclopenta[b]furan-6-yl)-8-(methylamino)-6-((2-oxo-2H-[1,2′-bipyridin]-3-yl)amino)imidazo[1,2-b]pyridazine-3-carboxamide] | > 1000 nM |  | IC50 [1, 3]: ≥ 1000 nM |
| CNc1cc(Nc2cccc3c2OCCC3)nn2c(C(=O)N[C@@H]3C[C@@H]4CCO[C@@H]43)cnc12 (racemic) [Compound 24] | 10 to 100 nM | 10 to 100 nM |  |
| CNc1cc(Nc2cccc3c2OCCC3)nn2c(C(=O)N[C@@H]3C[C@H]4CCO[C@H]43)cnc12 (racemic) [Compound 25] | < 10 nM | < 10 nM |  |
| CNc1cc(Nc2cccc3c2OCCC3)nc2c(C(=O)N[C@@H]3C[C@@H]4CCO[C@@H]43)cnn12 (racemic) [Compound 26] | 10 to 100 nM | 10 to 100 nM |  |
| CNc1cc(Nc2cccc3c2OCCC3)nc2c(C(=O)N[C@@H]3C[C@H]4CCO[C@H]43)cnn12 (racemic) [Compound 27] | < 10 nM | < 10 nM |  |
| CNc1cc(Nc2cccc(N3CCCC3=O)n2)nn2c(C(=O)NC(C)c3ncco3)cnc12 (racemic) [Compound 28] | 10 to 100 nM | < 10 nM |  |
| CNc1cc(Nc2cccc(N3CCCC3=O)n2)nn2c(C(=O)NC3CCn4ccnc43)cnc12 (racemic) [Compound 29] | < 10 nM | < 10 nM |  |
| [2H]C([2H])([2H])Nc1cc(Nc2cccc(N3CCCC3=O)n2)nn2c(C(=O)NC3C[C@@H]4CCOC34)cnc12 (mixture of isomers) [Compound 30] |  | 10 to 100 nM |  |
| [2H]C([2H])([2H])Nc1cc(Nc2cccc(N3CCCC3=O)n2)nn2c(C(=O)NC3C[C@H]4CCOC34)cnc12 (mixture of isomers) [Compound 31] | < 10 nM | < 10 nM |  |
| CNc1cc(Nc2cccc(C)n2)nc2c(C(=O)NC3CCn4ccnc43)cnn12 (racemic) [Compound 32] | 10 to 100 nM | < 10 nM |  |
| CNc1cc(Nc2cccc(C)n2)nc2c(C(=O)NC3CCn4ncnc43)cnn12 (racemic) [Compound 33] | 10 to 100 nM | < 10 nM |  |
| CNc1cc(Nc2cccn(-c3ccn(C)n3)c2=O)nc2c(C(=O)NC(C)c3ncco3)cnn12 (racemic) [Compound 48] |  | 10 to 100 nM |  |
| CNc1cc(Nc2cccn(-c3ccn(C)n3)c2=O)nc2c(C(=O)NC3C[C@@H]4CCOC34)cnn12 (mixture of isomers) [Compound 50] |  | 100 to 1000 nM |  |
| CNc1cc(Nc2cccn(-c3cc(C)on3)c2=O)nn2c(C(=O)NC3C[C@H]4CCOC34)cnc12 (mixture of isomers) [Compound 56] |  | 10 to 100 nM |  |
| CNc1cc(Nc2cccn(-c3ccccn3)c2=O)nc2c(C(=O)NC(C)c3ncco3)cnn12 (single isomer, unassigned) [Compound 36a] |  |  | IC50 [1, 3]: ≥ 1000 nM |

| SMILES | IC50 [2] | IC50 [1, 4] | other results |
| --- | --- | --- | --- |
| CNc1cc(Nc2cccn(C3CC(C)(OC)C3)c2=O)nn2c(C(=O)N[C@@H]3C[C@H]4CCO[C@H]43)cnc12 (single isomer, unassigned) [Compound 92b] |  |  | IC50 [1, 3]: 10 to 100 nM |
| [2H]C([2H])([2H])NC(=O)c1nnc(NC(=O)C2CC2)cc1Nc1cccc(-c2ncn(C)n2)c1OC [BMS-986165, reference compound] |  |  | IC50 ([1]; HEK-Blue IL-23 cells, numeric value (control)): 5.93 nM |
| CNc1cc(Nc2cccn(-c3ccccn3)c2=O)nn2c(C(=O)N[C@@H]3C[C@H]4CCO[C@H]43)cnc12 [Compound 2, N-((1R,5S,7R)-2-oxabicyclo[3.2.0]heptan-7-yl)-8-(methylamino)-6-((2-oxo-2H-[1,2′-bipyridin]-3-yl)amino)imidazo[1,2-b]pyridazine-3-carboxamide] |  | 10 to 100 nM |  |
| CNc1cc(Nc2cccn(-c3ccn(C)n3)c2=O)nn2c(C(=O)N[C@@H]3C[C@H]4CCO[C@H]43)cnc12 [Compound 3a, N-((1R,5S,7R)-2-oxabicyclo[3.2.0]heptan-7-yl)-6-((1-(1-methyl-1H-pyrazol-3-yl)-2-oxo-1,2-dihydropyridin-3-yl)amino)-8-(methylamino)imidazo[1,2-b]pyridazine-3-carboxamide] |  | < 10 nM |  |
| CNc1cc(Nc2cccn(-c3ccn(C)n3)c2=O)nn2c(C(=O)N[C@H]3C[C@@H]4CCO[C@@H]43)cnc12 [Compound 3b, N-((1S,5R,7S)-2-oxabicyclo[3.2.0]heptan-7-yl)-6-((1-(1-methyl-1H-pyrazol-3-yl)-2-oxo-1,2-dihydropyridin-3-yl)amino)-8-(methylamino)imidazo[1,2-b]pyridazine-3-carboxamide] |  | 100 to 1000 nM |  |
| [2H]C([2H])([2H])Nc1cc(Nc2cccn(-c3ccccn3)c2=O)nn2c(C(=O)N[C@@H]3C[C@H]4CCO[C@H]43)cnc12 [Compound 4a, N-((1R,5S,7R)-2-oxabicyclo[3.2.0]heptan-7-yl)-8-((methyl-d3)amino)-6-((2-oxo-2H-[1,2′-bipyridin]-3-yl)amino)imidazo[1,2-b]pyridazine-3-carboxamide] |  | 10 to 100 nM |  |
| [2H]C([2H])([2H])Nc1cc(Nc2cccn(-c3ccccn3)c2=O)nn2c(C(=O)N[C@H]3C[C@@H]4CCO[C@@H]43)cnc12 [Compound 4b, N-((1S,5R,7S)-2-oxabicyclo[3.2.0]heptan-7-yl)-8-((methyl-d3)amino)-6-((2-oxo-2H-[1,2′-bipyridin]-3-yl)amino)imidazo[1,2-b]pyridazine-3-carboxamide] |  | ≥ 1000 nM |  |
| [2H]C([2H])([2H])Nc1cc(Nc2cccn([C@H]3CC[C@H](OC([2H])([2H])[2H])CC3)c2=O)nn2c(C(=O)N[C@@H]3C[C@H]4CCO[C@H]43)cnc12 [Compound 11, N-((1R,5S,7R)-2-oxabicyclo[3.2.0]heptan-7-yl)-6-((1-((1r,4R)-4-(methoxy-d3)cyclohexyl)-2-oxo-1,2-dihydropyridin-3-yl)amino)-8-((methyl-d3)amino)imidazo[1,2-b]pyridazine-3-carboxamide] | < 10 nM |  |  |
| [2H]C([2H])([2H])Nc1cc(Nc2cccn(-c3ccccn3)c2=O)nn2c(C(=O)N[C@@H]3C[C@@H]3F)cnc12 [Compound 39] |  |  | IC50 [1, 3]: < 10 nM |
| CNc1cc(Nc2cccn(-c3nn(C)cc3F)c2=O)nn2c(C(=O)N[C@@H]3C[C@@H]3F)cnc12 [Compound 60] |  | 10 to 100 nM |  |
| [2H]C([2H])([2H])Nc1cc(Nc2cccn(C3CCC4(CC3)COC4)c2=O)nc2c(C(=O)N[C@@H]3C[C@H]4CCO[C@H]43)cnn12 [Compound 67] |  | 10 to 100 nM |  |
| [2H]C([2H])([2H])Nc1cc(Nc2cccn([C@H]3CC[C@@H](OC)CC3)c2=O)nn2c(C(=O)N[C@@H]3C[C@@H]3F)cnc12 [Compound 71] |  | 10 to 100 nM |  |
| [2H]C([2H])([2H])Nc1cc(Nc2cccn(C3CCC4(CC3)COC4)c2=O)nc2c(C(=O)N[C@@H]3C[C@@H]3F)cnn12 [Compound 74] |  | 10 to 100 nM |  |
| [2H]C([2H])([2H])Nc1cc(Nc2cccn(C3C[C@H]4CC[C@@H](C3)O4)c2=O)nc2c(C(=O)N[C@@H]3C[C@H]4CCO[C@H]43)cnn12 (stereo partly drawn) [Compound 77] |  | 10 to 100 nM |  |
| [2H]C([2H])([2H])Nc1cc(Nc2cccn(C3C[C@H]4CC[C@@H](C3)O4)c2=O)nn2c(C(=O)N[C@@H]3C[C@H]4CCO[C@H]43)cnc12 (stereo partly drawn) [Compound 78] |  | 10 to 100 nM |  |
